Data taken from article PMC4402678, “Twins in spirit - episode I: comparative preclinical evaluation of [^68Ga]DOTATATE and [^68Ga]HA-DOTATATE” (EJNMMI Research, 2015).
Read-outs that look alike come from different tables or passages of the source.

Columns and labels:
[1] = mouse, in vivo, iv, Biodistribution Lung, Control
Procedure: (§3) To establish tumor growth, AR42J cells were detached from the surface of the culture flasks using 1 mM EDTA in PBS, centrifuged, and resuspended in serum-free culture medium. Concentration of the cell suspension was 2.5 to 5 × 10^6 cells/100 μL. Nude mice (CD-1 nu/nu, female, 6 to 8 weeks, from Charles River WIGA GmbH, Sulzfeld, Germany) were injected with 100 μL of the cell suspension subcutaneously into the flank. […] For competition studies, 20 μg TOC (0.8 mg/kg) were coinjected with the radioligands. The animals (groups of 4 to 5) were sacrificed 1 h post injection and the organs of interest were dissected. The radioactivity was measured in weighted tissue samples using a γ-counter. Data are given in %iD/g and are means ± SD.

[2] = Biodistribution in AR42J tumor-bearing nude mice; conditions: mouse, 60 min p.i.
Procedure: as §3

hsst1 = molecular target: T1, hsst1 (Homo sapiens, UniProt P30872); experiment: Competition binding, hsst1 membrane preparations (Millipore), [125I]SST-28 radioligand; conditions: CHO cell membranes (Millipore), [Leu8,D-Trp22,[125I]Tyr25]-somatostatin 28 radioligand; IC50 ± SD; read-out: IC50 hsst 1
T1 construct: purchased Millipore (Schwalbach, Germany), ChemiSCREEN membranes; host or cells: CHO cells stably transfected
Procedure: (§1) Cell membrane preparations of cells expressing the human sst1–5 were obtained from Millipore (Schwalbach, Germany) and PerkinElmer (Rodgau, Germany). Competition binding studies were performed in close analogy to the manufacturer’s protocol. […] To each well, 10 μL of (Leu^8,D-Trp^22,[^125I]Tyr^25)-somatostatin-28 in binding buffer (approx. 100,000 cpm) were added. Then, 5 μg of cell membrane in 80 μL of binding buffer were added per well and incubated for 60 min at RT. The final radioligand concentration in the incubation mixture was 0.42 nM. Membranes were then aspired onto a glass fiber filtermat (Printed Filtermat B, Wallach, Turku, Finland), which had been preconditioned with 0.33% polyethylenimine for 30 min and then washed five times with 300 μL (per well) of wash buffer (50 mM HEPES, 500 mM NaCl, 0.1% BSA, buffered to pH 7.4 using 1 N NaOH), using a Mach II M Harvester 96 (Tomtec CE, Etten-Leur, The Netherlands). Membranes were washed ten times with 150 μL (per well) of wash buffer. The filtermat was then cut into squares containing the membrane from the respective wells, and membrane bound activity was counted in a γ-counter. IC50 values were calculated from bound activity [cpm] using PRISM 6 software (Graph Pad Software, San Diego, CA, USA).
(§2) Data were determined using membrane preparations of CHO cells stably transfected with the respective sst subtype.

hsst3 = molecular target: T2, hsst3 (Homo sapiens, UniProt P32745); experiment: Competition binding, hsst3 membrane preparations (Millipore), [125I]SST-28 radioligand; conditions: CHO cell membranes (Millipore), [Leu8,D-Trp22,[125I]Tyr25]-somatostatin 28 radioligand; IC50 ± SD; read-out: IC50 hsst 3
T2 construct: purchased Millipore (Schwalbach, Germany), ChemiSCREEN membranes; host or cells: CHO cells stably transfected
Procedure: as §1, §2

hsst5 [3] = molecular target: T3, hsst5 (Homo sapiens, UniProt P35346); experiment: Competition binding, hsst5 membrane preparations (Millipore), [125I]SST-28 radioligand; design: purchased Millipore (Schwalbach, Germany), ChemiSCREEN membranes; host or cells: CHO cells stably transfected; conditions: CHO cell membranes (Millipore), [Leu8,D-Trp22,[125I]Tyr25]-somatostatin 28 radioligand; IC50 ± SD; read-out: IC50 hsst 5
Procedure: as §1, §2

[4] = tested on: AR42J tumor-bearing nude mice; experiment: Biodistribution in AR42J tumor-bearing nude mice; conditions: 60 min p.i.
Procedure: as §3

hsst5 [5] = molecular target: T3, hsst5; design: method as in PMID 10774879; conditions: read-out: hsst5 affinity, autoradiography assay; cited from earlier work
[6] = pH 7.4, log P O/PBS
Procedure: Lipophilicities of [^68Ga]DOTATATE/HA-DOTATATE and [^177Lu]DOTATATE/HA-DOTATATE were determined via a modified shake flask method as described previously [13].

sst2 = tested on: sst2; design: method as in PMID 10774879; conditions: read-out: IC50 (sst2), receptor autoradiography; cited from earlier work

T3 sequence (P35346 whole entry): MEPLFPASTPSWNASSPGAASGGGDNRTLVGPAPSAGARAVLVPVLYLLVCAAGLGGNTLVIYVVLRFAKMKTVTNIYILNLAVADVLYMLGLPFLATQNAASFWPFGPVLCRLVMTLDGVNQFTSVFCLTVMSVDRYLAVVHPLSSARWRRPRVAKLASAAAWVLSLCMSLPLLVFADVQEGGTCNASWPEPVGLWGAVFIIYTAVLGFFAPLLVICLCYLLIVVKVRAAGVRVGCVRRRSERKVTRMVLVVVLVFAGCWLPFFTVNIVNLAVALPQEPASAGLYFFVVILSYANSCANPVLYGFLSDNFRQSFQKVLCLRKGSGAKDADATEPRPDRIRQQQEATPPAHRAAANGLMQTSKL
T1 sequence (P30872 whole entry): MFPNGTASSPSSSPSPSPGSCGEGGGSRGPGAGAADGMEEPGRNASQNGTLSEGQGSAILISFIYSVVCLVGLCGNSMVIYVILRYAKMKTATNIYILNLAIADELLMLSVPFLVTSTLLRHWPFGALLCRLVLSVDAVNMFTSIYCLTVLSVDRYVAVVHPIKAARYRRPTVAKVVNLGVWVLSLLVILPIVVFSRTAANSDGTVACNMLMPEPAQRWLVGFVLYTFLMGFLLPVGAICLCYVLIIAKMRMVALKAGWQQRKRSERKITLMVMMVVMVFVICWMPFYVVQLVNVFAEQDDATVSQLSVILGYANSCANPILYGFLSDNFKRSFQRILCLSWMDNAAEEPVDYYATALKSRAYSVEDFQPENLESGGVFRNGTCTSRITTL
T2 sequence (P32745 whole entry): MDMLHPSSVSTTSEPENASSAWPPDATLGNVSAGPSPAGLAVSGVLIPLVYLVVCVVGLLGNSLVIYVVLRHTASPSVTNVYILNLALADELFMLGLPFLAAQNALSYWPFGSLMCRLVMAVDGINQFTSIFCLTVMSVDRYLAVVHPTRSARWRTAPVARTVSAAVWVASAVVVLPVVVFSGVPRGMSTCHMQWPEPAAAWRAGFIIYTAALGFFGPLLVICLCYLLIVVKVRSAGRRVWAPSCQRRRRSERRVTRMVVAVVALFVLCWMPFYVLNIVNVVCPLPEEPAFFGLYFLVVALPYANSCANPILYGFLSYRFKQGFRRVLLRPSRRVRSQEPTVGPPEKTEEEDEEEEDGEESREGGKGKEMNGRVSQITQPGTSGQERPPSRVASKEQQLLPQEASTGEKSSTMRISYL

C[C@@H](O)[C@H](NC(=O)[C@@H]1CSSC[C@H](NC(=O)[C@@H](Cc2ccccc2)NC(=O)CN2CCN(CC(=O)O)CCN(CC(=O)O)CCN(CC(=O)O)CC2)C(=O)N[C@@H](Cc2ccc(O)cc2)C(=O)N[C@H](Cc2c[nH]c3ccccc23)C(=O)N[C@@H](CCCCN)C(=O)N[C@@H]([C@@H](C)O)C(=O)N1)C(=O)O [[^68Ga]DOTATATE, [^68Ga]DOTA-Tyr^3-octreotate, metal not drawn]
tissue uptake at 1 h [1]: 8.4 ± 1.4 %ID/g | tissue uptake at 1 h ([2]; in vivo, Biodistribution AR42J tumor, Competition, coinjection of 20 μg/mouse unlabeled TOC, n = 3): 2 ± 0.1 %ID/g | tissue uptake at 1 h ([2]; in vivo, Biodistribution Adrenals, Competition, coinjection of 20 μg/mouse unlabeled TOC, n = 3): 0.4 ± 0.1 %ID/g | tissue uptake at 1 h ([2]; in vivo, Biodistribution Blood, Competition, coinjection of 20 μg/mouse unlabeled TOC, n = 3): 0.4 ± 0.2 %ID/g | tissue uptake at 1 h ([2]; in vivo, Biodistribution Heart, Competition, coinjection of 20 μg/mouse unlabeled TOC, n = 3): 0.2 ± 0.1 %ID/g | tissue uptake at 1 h ([2]; in vivo, Biodistribution Intestine, Competition, coinjection of 20 μg/mouse unlabeled TOC, n = 3): 0.6 ± 0.2 %ID/g | tissue uptake at 1 h ([2]; in vivo, Biodistribution Liver, Competition, coinjection of 20 μg/mouse unlabeled TOC, n = 3): 0.2 ± 0.05 %ID/g | tissue uptake at 1 h ([2]; in vivo, Biodistribution Lung, Competition, coinjection of 20 μg/mouse unlabeled TOC, n = 3): 0.6 ± 0.2 %ID/g | tissue uptake at 1 h ([2]; in vivo, Biodistribution Muscle, Competition, coinjection of 20 μg/mouse unlabeled TOC, n = 3): 0.2 ± 0.1 %ID/g | tissue uptake at 1 h ([2]; in vivo, Biodistribution Spleen, Competition, coinjection of 20 μg/mouse unlabeled TOC, n = 3): 0.2 ± 0.03 %ID/g | tissue uptake at 1 h ([2]; in vivo, Biodistribution Stomach, Competition, coinjection of 20 μg/mouse unlabeled TOC, n = 3): 0.7 ± 0.1 %ID/g | tissue uptake at 1 h ([2]; in vivo, iv, Biodistribution AR42J tumor, Control, tracer only, n = 5): 24.1 ± 4.9 %ID/g | tissue uptake at 1 h ([2]; in vivo, iv, Biodistribution Adrenals, Control, tracer only, n = 5): 5.1 ± 1.4 %ID/g | tissue uptake at 1 h ([2]; in vivo, iv, Biodistribution Blood, Control, tracer only, n = 5): 0.3 ± 0.06 %ID/g | tissue uptake at 1 h ([2]; in vivo, iv, Biodistribution Heart, Control, tracer only, n = 5): 0.3 ± 0.04 %ID/g | tissue uptake at 1 h ([2]; in vivo, iv, Biodistribution Intestine, Control, tracer only, n = 5): 2.7 ± 0.8 %ID/g | tissue uptake at 1 h ([2]; in vivo, iv, Biodistribution Kidney, Control, tracer only, n = 5): 3.9 ± 0.5 %ID/g | tissue uptake at 1 h ([2]; in vivo, iv, Biodistribution Liver, Control, tracer only, n = 5): 0.5 ± 0.1 %ID/g | tissue uptake at 1 h ([2]; in vivo, iv, Biodistribution Muscle, Control, tracer only, n = 5): 0.3 ± 0.2 %ID/g | tissue uptake at 1 h ([2]; in vivo, iv, Biodistribution Pancreas, Control, tracer only, n = 5): 26.1 ± 4.9 %ID/g | tissue uptake at 1 h ([2]; in vivo, iv, Biodistribution Stomach, Control, tracer only, n = 5): 15.9 ± 3.9 %ID/g

C[C@@H](O)[C@H](NC(=O)[C@@H]1CSSC[C@H](NC(=O)[C@@H](Cc2ccccc2)NC(=O)CN2CCN(CC(=O)O)CCN(CC(=O)O)CCN(CC(=O)O)CC2)C(=O)N[C@@H](Cc2ccc(O)c(I)c2)C(=O)N[C@H](Cc2c[nH]c3ccccc23)C(=O)N[C@@H](CCCCN)C(=O)N[C@@H]([C@@H](C)O)C(=O)N1)C(=O)O [^natGa-HA-DOTATATE, metal not drawn]
IC50 (hsst1): > 1000 nM | IC50 (hsst3): > 1000 nM | IC50 (hsst5 [3]): 102 ± 65 nM

C[C@@H](O)[C@H](NC(=O)[C@@H]1CSSC[C@H](NC(=O)[C@@H](Cc2ccccc2)NC(=O)CN2CCN(CC(=O)O)CCN(CC(=O)O)CCN(CC(=O)O)CC2)C(=O)N[C@@H](Cc2ccc(O)c(I)c2)C(=O)N[C@H](Cc2c[nH]c3ccccc23)C(=O)N[C@@H](CCCCN)C(=O)N[C@@H]([C@@H](C)O)C(=O)N1)C(=O)O [[^68Ga]HA-DOTATATE] [[^68Ga]DOTA-3-iodo-Tyr^3-octreotate, metal not drawn]
Uptake in sst-expressing tissues (stomach, adrenals, pancreas, AR42J tumor), factor of increase compared to [^68Ga]DOTATATE [4]: 1.4 to 2

C[C@@H](O)[C@H](NC(=O)[C@@H]1CSSC[C@H](NC(=O)[C@@H](Cc2ccccc2)NC(=O)CN2CCN(CC(=O)O)CCN(CC(=O)O)CCN(CC(=O)O)CC2)C(=O)N[C@@H](Cc2ccc(O)cc2)C(=O)N[C@H](Cc2c[nH]c3ccccc23)C(=O)N[C@@H](CCCCN)C(=O)N[C@@H]([C@@H](C)O)C(=O)N1)C(=O)O [^natGa-DOTATATE, metal not drawn, reference compound]
IC50 (hsst5 [5]): 200 to 500 nM | logP [6]: -3.69 | IC50 (hsst1): > 1000 nM | IC50 (sst2): […] | IC50 (hsst3): > 1000 nM | IC50 (hsst5 [3]): > 1000 nM

C[C@@H](O)[C@H](NC(=O)[C@@H]1CSSC[C@H](NC(=O)[C@@H](Cc2ccccc2)NC(=O)CN2CCN(CC(=O)O)CCN(CC(=O)O)CCN(CC(=O)O)CC2)C(=O)N[C@@H](Cc2ccc(O)c(I)c2)C(=O)N[C@H](Cc2c[nH]c3ccccc23)C(=O)N[C@@H](CCCCN)C(=O)N[C@@H]([C@@H](C)O)C(=O)N1)C(=O)O [[^68Ga]HA-DOTATATE, [^68Ga]DOTA-3-iodo-Tyr^3-octreotate, metal not drawn]
tissue uptake at 1 h ([2]; AR42J tumor, intravenous, Biodistribution AR42J tumor, Competition, coinjection of 20 μg/mouse unlabeled TOC, n = 3): 5.6 ± 0.7 %ID/g | tissue uptake at 1 h ([2]; AR42J tumor, iv, 25 pmol/mouse, Biodistribution AR42J tumor, Control, tracer only, n = 5): 33.6 ± 10.9 %ID/g | tissue uptake at 1 h ([2]; adrenals, intravenous, Biodistribution Adrenals, Competition, coinjection of 20 μg/mouse unlabeled TOC, n = 3): 1 ± 0.3 %ID/g | tissue uptake at 1 h ([2]; adrenals, iv, 25 pmol/mouse, Biodistribution Adrenals, Control, tracer only, n = 5): 10.8 ± 3.2 %ID/g | tissue uptake at 1 h ([2]; blood, intravenous, Biodistribution Blood, Competition, coinjection of 20 μg/mouse unlabeled TOC, n = 3): 2.5 ± 0.6 %ID/g | tissue uptake at 1 h ([2]; blood, iv, 25 pmol/mouse, Biodistribution Blood, Control, tracer only, n = 5): 0.7 ± 0.3 %ID/g | tissue uptake at 1 h ([2]; heart, intravenous, Biodistribution Heart, Competition, coinjection of 20 μg/mouse unlabeled TOC, n = 3): 1 ± 0.2 %ID/g | tissue uptake at 1 h ([2]; heart, iv, 25 pmol/mouse, Biodistribution Heart, Control, tracer only, n = 5): 0.5 ± 0.2 %ID/g | tissue uptake at 1 h ([2]; intestine, intravenous, Biodistribution Intestine, Competition, coinjection of 20 μg/mouse unlabeled TOC, n = 3): 0.8 ± 0.04 %ID/g | tissue uptake at 1 h ([2]; intestine, iv, 25 pmol/mouse, Biodistribution Intestine, Control, tracer only, n = 5): 4 ± 0.7 %ID/g | tissue uptake at 1 h ([2]; kidney, intravenous, Biodistribution Kidney, Competition, coinjection of 20 μg/mouse unlabeled TOC, n = 3): 17.1 ± 8.7 %ID/g | tissue uptake at 1 h ([2]; kidney, iv, 25 pmol/mouse, Biodistribution Kidney, Control, tracer only, n = 5): 5.3 ± 1 %ID/g | tissue uptake at 1 h ([2]; liver, intravenous, Biodistribution Liver, Competition, coinjection of 20 μg/mouse unlabeled TOC, n = 3): 1 ± 0.3 %ID/g | tissue uptake at 1 h ([2]; liver, iv, 25 pmol/mouse, Biodistribution Liver, Control, tracer only, n = 5): 1 ± 0.2 %ID/g | tissue uptake at 1 h ([2]; lung, intravenous, Biodistribution Lung, Competition, coinjection of 20 μg/mouse unlabeled TOC, n = 3): 2.5 ± 0.4 %ID/g | tissue uptake at 1 h ([2]; lung, iv, 25 pmol/mouse, Biodistribution Lung, Control, tracer only, n = 5): 13.2 ± 1 %ID/g | tissue uptake at 1 h ([2]; muscle, intravenous, Biodistribution Muscle, Competition, coinjection of 20 μg/mouse unlabeled TOC, n = 3): 0.6 ± 0.4 %ID/g | tissue uptake at 1 h ([2]; muscle, iv, 25 pmol/mouse, Biodistribution Muscle, Control, tracer only, n = 5): 0.2 ± 0.1 %ID/g | tissue uptake at 1 h ([2]; pancreas, intravenous, Biodistribution Pancreas, Competition, coinjection of 20 μg/mouse unlabeled TOC, n = 3): 1.5 ± 0.5 %ID/g | tissue uptake at 1 h ([2]; pancreas, iv, 25 pmol/mouse, Biodistribution Pancreas, Control, tracer only, n = 5): 36.6 ± 4.3 %ID/g | tissue uptake at 1 h ([2]; spleen, intravenous, Biodistribution Spleen, Competition, coinjection of 20 μg/mouse unlabeled TOC, n = 3): 0.7 ± 0.2 %ID/g | tissue uptake at 1 h ([2]; spleen, iv, 25 pmol/mouse, Biodistribution Spleen, Control, tracer only, n = 5): 1.9 ± 0.8 %ID/g | tissue uptake at 1 h ([2]; stomach, intravenous, Biodistribution Stomach, Competition, coinjection of 20 μg/mouse unlabeled TOC, n = 3): 1.9 ± 0.8 %ID/g | tissue uptake at 1 h ([2]; stomach, iv, 25 pmol/mouse, Biodistribution Stomach, Control, tracer only, n = 5): 21.7 ± 4.5 %ID/g
